# Like-named read-outs stand apart in the source and are kept apart here.
# Assays:
# patients with ALS = system: patients with ALS
# Source text: Non-limiting examples of measures of clinical response include the ALS Functional Rating Scale Revised (ALSFRS-R) and respiratory vital capacity.
# Stem cell reprogramming for long term disease regulation is evidenced by finding normalization of biomarkers for at least one month after the last dose in the 6-month administration procedure.
# A major subset of ALS patients show evidence for ongoing inflammation that potentially contributes to disease progression.
# CD 34+ HSCs = settings: LPS-activated HSC (10 ng/mL LPS overnight), single treatment with NP001 300 μM, grown 3 days, RNAseq
# Method: CD 34+ HSCs were isolated from normal human adult bone marrow (>95% pure) and were either stimulated by 10 ng/mL LPS overnight or control medium. NP001 was added (300 μM; equivalent to phase 2 dose in humans) to washed HSC controls and LPS-activated HSC and the cells grown for 3 days in HSC medium. RNAseq with 100 M reads was performed on all cells and pathway analysis was performed.
# By comparison with non-LPS-activated cells, LPS-activated pathways with p<10-15 were defined. […] NP001-treated, LPS-activated HSC gene expression pathways were evaluated in parallel. […] In addition, LPS-activated HSC were evaluated for factors (e.g., protein and genes), that were modulated following treatment with NP001.
# [1] = ALS patients with plasma CRP levels >1.13 mg/L
# [2] = clinical responders, 6-month pulse therapy, at least one month after last dose
# [3] = mechanism of action studies in patients with ALS
substance,measurement,setting,value
sodium chlorite [NP001],disease progression,patients with ALS; [1],slowing disease progression
same,innate immune function,patients with ALS; [1],restore innate immune function
same,"plasma epidermal growth factor (EGF), long term change",patients with ALS; [2],upregulation
same,"plasma hepatocyte growth factor (HGF), long term change",patients with ALS; [2],downregulation
same,"plasma interleukin-10 (IL-10), long term change",patients with ALS; [2],upregulation
same,"plasma interleukin-18 (IL-18), long term change",patients with ALS; [2],downregulation
same,"plasma lipopolysaccharide (LPS), long term change",patients with ALS; [2],downregulation
same,"plasma lipopolysaccharide binding protein (LBP), long term change",patients with ALS; [2],downregulation
same,"plasma neopterin, long term change",patients with ALS; [2],upregulation
same,"plasma soluble CD163 (sCD163), long term change",patients with ALS; [2],downregulation
same,8 biomarkers associated with microbial translocation,"patients with ALS; intermittent dosing (3 days/month), patients whose disease slowed",prolonged regulation
same,disease progression,patients with ALS; [3],slowing disease progression
same,innate immune function,patients with ALS; [3],restore innate immune function
same,HSC gene expression pathways stimulated by LPS,CD 34+ HSCs,reversed

# — patent publication US20250114396A1, “CHLORITE USES FOR STEM CELLS” (The Regents of the University of California, priority 2023, published 2025)
